From patent US20250137054A1, “COMPOSITION AND METHOD FOR EVALUATING RESPONSIVENESS OF EDARAVONE” (MITSUBISHI TANABE PHARMA CORPORATION, priority 2022, published 2025)

What was measured:
[1] = system: differentiated 1464R cell line (no forced TDP-43 expression); assay: RNA-seq gene expression analysis in differentiated cell line without TDP-43; type: cell-based, rat; settings: Group 2 (Eda 50 μmol/L 48 h) vs Group 1 (control)
Method: Next, using a differentiation medium shown below, the 1464R cell line was cultured in an adherent state on a poly-L-lysine treated dish. Culture conditions for cell differentiation were 37° C., 5% CO2, and 4 days. Through this process, the 1464R cell line was differentiated into neuronal cells (neurons). Further, the 1464R cell line partly differentiated into glial cells. In the following description, the differentiated 1464R cell line is also collectively referred to as the “differentiated cell line.” […]
Next, using the NovaSeq6000 system (NovaSeq6000 S4 reagent kit, NovaSeq Xp4 lane kit, and NovaSeq control software (version 1.6.0); all manufactured by Illumina), sequences of the cDNA library were determined according to a product protocol. […]
An RNA expression level (TPM) of a transcription product i measured from the cDNA library of the experimental groups was calculated based on alignment to the rat genome and transcription product annotation from the Ensembl database, according to the following equation (A).
Differential expression analysis was performed using DESeq2 (a package for two-group comparison) in the statistical analysis software R (version 3.6.0) to calculate a log 2 ratio of RNA expression levels and a significance test. The log 2 ratio is a value expressed as “log 2 ([expression level of a first measurement target]/[expression level of a second measurement target]).” […]

[2] = system: disease model cells, TDP-43 (+); assay: Evaluation of cell protection using chromogenic substrate (2), without EA; type: cell-based, rat; settings: Eda 50 or 100 μmol/L 96 h, no EA; vs Comparative Example 2 (FIG. 12)
Description: Using the differentiated cell line prepared using the method of Example 1 (indicated as “TDP-43 (−)” in FIG. 12), an Eda-unexposed group (Reference Example 2) and a 96-hour Eda-exposed group (final concentration 100 μmol/L) (Reference Example 3) were each prepared.
Further, using the disease model cells prepared using the method of Example 1 (indicated as “TDP-43 (+)” in FIG. 12), an Eda-unexposed group (Comparative Example 2) and 96-hour Eda-exposed groups (final concentration 50 or 100 μmol/L) (Examples 5-1 and 5-2) were each prepared.
All of these were performed without containing EA.
After that, similar to Example 3-1 and the like, a cell toxicity measurement kit was used to expose the cells in each group according to a product protocol, and an amount of chromogenic substrate produced was measured by absorbance at 450 nm.
The data shown in FIG. 12 are all expressed as mean±standard error of the mean (SEM, n=4 for each). In FIG. 12, the symbol “##” indicates a statistically significant difference of p<0.01 compared to Comparative Example 2. In FIG. 12, the symbol “**” indicates a statistically significant difference of p<0.05 compared to Comparative Example 2. In FIG. 12, the symbol “$” indicates a statistically significant difference of p<0.05 compared to Reference Example 2 (all determined by Student t-test).

For CC1=NN(c2ccccc2)C(=O)C1 [edaravone, 5-methyl-2-phenyl-2,4-dihydro-3H-pyrazol-3-one], the “number of downregulated genes (DEGs)” value [1] was 0/0, the “number of upregulated genes (DEGs)” value [1] was 0/0 and the “number of viable cells (absorbance at 450 nm)” value [2] was “higher number of viable cells”.
